These results are taken from patent US10669258B2, “3-sulfonyl-5-aminopyridine-2,4-diol APJ agonists” (BRISTOL-MYERS SQUIBB COMPANY, priority 2016, dated 2020).

In this test the target is T1, human APJ receptor (Homo sapiens, UniProt P35414).
T1 construct: expressed in transfected cells; host or cells: HEK293
T1 sequence (P35414 1-380): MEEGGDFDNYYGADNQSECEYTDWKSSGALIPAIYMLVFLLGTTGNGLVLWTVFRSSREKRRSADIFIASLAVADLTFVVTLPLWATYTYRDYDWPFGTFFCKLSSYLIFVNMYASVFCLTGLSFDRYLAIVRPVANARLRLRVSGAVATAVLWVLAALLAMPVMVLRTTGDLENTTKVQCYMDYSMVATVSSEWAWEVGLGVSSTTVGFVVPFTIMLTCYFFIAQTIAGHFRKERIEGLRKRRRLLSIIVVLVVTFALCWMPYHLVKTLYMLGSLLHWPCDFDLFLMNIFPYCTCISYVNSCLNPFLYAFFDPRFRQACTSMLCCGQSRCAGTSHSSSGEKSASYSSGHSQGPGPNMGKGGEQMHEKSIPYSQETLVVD
As to the kind of experiment: Intracellular cAMP accumulation assay (APJ hcAMP, HTRF). The conditions noted are these: HEK293 cells stably expressing human APJ receptor; inhibition of forskolin-mediated cAMP production; Table 1; read-out: hAPJ cAMP EC50 Potency range. The class given is cell-based. The gist of the method:
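HEK293 cells stably expressing the receptor (5,000/well) treated with compound plus […] and 2 μM forskolin for 30 min at room temperature; cAMP by HTRF against a cAMP standard curve. EC50 from variable-slope sigmoidal fit; Ymax as % of (Pyr1)apelin-13 inhibition.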
Broadly, the EC50 is the concentration needed to bring the measured effect to its halfway point. For the compound `CCCCc1nc(O)c(S(=O)(=O)c2ccc(Br)cc2)c(O)c1N(C)c1cccc(C)c1` [Example 093, 3-((4-bromophenyl)sulfonyl)-6-butyl-5-(methyl(m-tolyl)amino)pyridine-2,4-diol], the 50% effective concentration (EC50) fell in the range of 10 to 100 nM.
Turning to `CCN(c1ccccc1)c1c(-c2cccc(C)c2)nc(O)c(S(=O)(=O)c2ccc(-c3ccccc3C(=O)N(C)C)cc2)c1O` [Example 141, 4′-((5-(ethyl(phenyl)amino)-2,4-dihydroxy-6-(m-tolyl)pyridin-3-yl)sulfonyl)-N,N-dimethyl-[1,1′-biphenyl]-2-carboxamide], the EC50 was in the range of 0.01 to 10 nM.
Regarding `CCCCc1nc(O)c(S(=O)(=O)c2ccc(-c3ccc(F)nc3C)cc2)c(O)c1N(C)c1cccc(OC)c1` [Example 030, 6-butyl-3-((4-(6-fluoro-2-methylpyridin-3-yl)phenyl)sulfonyl)-5-((3-methoxyphenyl)(methyl)amino)pyridine-2,4-diol], the EC50 was in the range of 10 to 100 nM.
